Laboratory results taken from ChEMBL document CHEMBL5303573, “Mapping human microbiome drug metabolism by gut bacteria and their genes” (Nature, 2019).

Tests used:
[1] = bacteroides intestinalis, 12 h, 2 µM
Description: The drug is tested on Bacteroides intestinalis strain: DSM17393 for biotransformation. The drug concentrations were measured before and after a 12-h incubation by liquid-chromatography-coupled mass spectrometry (LC–MS)

[2] = target: T1, Pyridine nucleotide-disulfide oxidoreductase (Collinsella aerofaciens, UniProt A4EBM5); experiment: (§1) The drug is tested on Collinsella aerofaciens strain: ATCC25986 for biotransformation. The drug concentrations were measured before and after a 12-h incubation by liquid-chromatography-coupled mass spectrometry (LC–MS); type: ADME; design: dose 2 uM; details: 2 µM
T1 sequence (A4EBM5 whole entry): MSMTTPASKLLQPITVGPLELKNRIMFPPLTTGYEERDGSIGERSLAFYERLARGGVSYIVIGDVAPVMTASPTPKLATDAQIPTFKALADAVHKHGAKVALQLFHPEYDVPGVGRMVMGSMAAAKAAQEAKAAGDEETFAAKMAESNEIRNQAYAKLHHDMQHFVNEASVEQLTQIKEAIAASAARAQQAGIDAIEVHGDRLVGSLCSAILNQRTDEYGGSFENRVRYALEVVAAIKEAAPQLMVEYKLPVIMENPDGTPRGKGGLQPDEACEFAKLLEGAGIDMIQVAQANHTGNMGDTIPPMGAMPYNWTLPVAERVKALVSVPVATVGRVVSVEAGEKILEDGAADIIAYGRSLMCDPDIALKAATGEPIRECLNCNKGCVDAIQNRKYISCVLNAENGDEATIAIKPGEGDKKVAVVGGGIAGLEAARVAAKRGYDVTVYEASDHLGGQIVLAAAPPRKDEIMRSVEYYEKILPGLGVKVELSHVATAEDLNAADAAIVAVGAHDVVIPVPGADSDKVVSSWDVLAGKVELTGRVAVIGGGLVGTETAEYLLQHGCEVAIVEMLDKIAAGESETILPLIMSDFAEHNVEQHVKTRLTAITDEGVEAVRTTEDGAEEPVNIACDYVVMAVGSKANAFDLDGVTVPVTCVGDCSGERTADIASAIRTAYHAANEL

Flavodoxin = target: T2, Flavodoxin (Collinsella aerofaciens, UniProt A4ED08); experiment: as §1; type: ADME; design: dose 2 uM; details: 2 µM
T2 sequence (A4ED08 whole entry): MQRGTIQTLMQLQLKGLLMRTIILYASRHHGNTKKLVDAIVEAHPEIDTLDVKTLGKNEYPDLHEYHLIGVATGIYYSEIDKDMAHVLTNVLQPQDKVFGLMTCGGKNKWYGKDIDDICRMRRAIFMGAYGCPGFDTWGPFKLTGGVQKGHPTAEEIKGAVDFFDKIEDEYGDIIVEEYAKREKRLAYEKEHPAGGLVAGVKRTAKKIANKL

GDSL-like protein = target: T3, GDSL-like protein (Collinsella aerofaciens, UniProt A4E7D0); experiment: as §1; type: ADME; design: dose 2 uM; details: 2 µM
T3 sequence (A4E7D0 whole entry): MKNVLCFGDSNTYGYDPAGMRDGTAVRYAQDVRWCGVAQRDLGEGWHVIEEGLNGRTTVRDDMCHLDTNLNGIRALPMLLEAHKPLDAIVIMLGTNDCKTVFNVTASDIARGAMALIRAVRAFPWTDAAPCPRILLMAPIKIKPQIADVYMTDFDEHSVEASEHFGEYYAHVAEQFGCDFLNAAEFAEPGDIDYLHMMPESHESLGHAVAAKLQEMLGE

Diguanylate cyclase = target: T4, Diguanylate cyclase (Collinsella aerofaciens, UniProt A4EB91); experiment: as §1; type: ADME; design: dose 2 uM; details: 2 µM
T4 sequence (A4EB91 whole entry): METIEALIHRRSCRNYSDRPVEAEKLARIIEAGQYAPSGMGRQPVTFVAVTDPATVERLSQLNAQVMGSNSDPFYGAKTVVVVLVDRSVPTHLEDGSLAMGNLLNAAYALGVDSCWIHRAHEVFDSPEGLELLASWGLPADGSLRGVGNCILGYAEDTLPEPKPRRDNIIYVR

[3] = parabacteroides distasonis, 12 h, 2 µM
Description: The drug is tested on Parabacteroides distasonis strain: ATCC8503 for biotransformation. The drug concentrations were measured before and after a 12-h incubation by liquid-chromatography-coupled mass spectrometry (LC–MS)

[4] = The drug is tested on Bacteroides pectinophilus strain: ATCC43243 for biotransformation. The drug concentrations were measured before and after a 12-h incubation by liquid-chromatography-coupled mass spectrometry (LC–MS); details: 2 µM
[5] = The drug is tested on Bacteroides ovatus strain: ATCC8483 for biotransformation. The drug concentrations were measured before and after a 12-h incubation by liquid-chromatography-coupled mass spectrometry (LC–MS); details: 2 µM
[6] = The drug is tested on Ruminococcus gnavus strain: ATCC29149 for biotransformation. The drug concentrations were measured before and after a 12-h incubation by liquid-chromatography-coupled mass spectrometry (LC–MS); details: mediterraneibacter gnavus, 2 µM
[7] = as §1; details: 2 µM
[8] = The drug is tested on Bifidobacterium longum subsp. Infantis strain: CCUG52486 for biotransformation. The drug concentrations were measured before and after a 12-h incubation by liquid-chromatography-coupled mass spectrometry (LC–MS); details: 2 µM
Xylanase = target: T5, Xylanase (Bacteroides thetaiotaomicron, UniProt Q8A8H5); experiment: (§2) The drug is tested on Bacteroides thetaiotaomicron strain: VPI-5482 for biotransformation. The drug concentrations were measured before and after a 12-h incubation by liquid-chromatography-coupled mass spectrometry (LC–MS); type: ADME; design: dose 2 uM; details: 2 µM
T5 sequence (Q8A8H5 whole entry): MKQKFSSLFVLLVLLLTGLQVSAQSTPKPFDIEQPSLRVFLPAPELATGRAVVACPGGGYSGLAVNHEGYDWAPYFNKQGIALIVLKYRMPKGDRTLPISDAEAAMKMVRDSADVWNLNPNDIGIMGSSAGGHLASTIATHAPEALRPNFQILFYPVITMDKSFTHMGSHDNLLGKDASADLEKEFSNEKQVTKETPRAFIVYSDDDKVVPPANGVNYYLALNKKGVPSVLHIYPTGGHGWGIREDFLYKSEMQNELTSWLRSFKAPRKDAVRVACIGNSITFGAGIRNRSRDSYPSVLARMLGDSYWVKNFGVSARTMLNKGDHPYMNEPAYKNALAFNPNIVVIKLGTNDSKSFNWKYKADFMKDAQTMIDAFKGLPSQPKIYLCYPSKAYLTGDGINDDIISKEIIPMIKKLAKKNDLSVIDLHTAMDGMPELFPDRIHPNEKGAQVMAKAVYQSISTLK

[9] = target: T6, Nitroreductase-like protein (Bacteroides thetaiotaomicron, UniProt Q8AB93); experiment: as §2; type: ADME; design: dose 2 uM; details: 2 µM
T6 sequence (Q8AB93 whole entry): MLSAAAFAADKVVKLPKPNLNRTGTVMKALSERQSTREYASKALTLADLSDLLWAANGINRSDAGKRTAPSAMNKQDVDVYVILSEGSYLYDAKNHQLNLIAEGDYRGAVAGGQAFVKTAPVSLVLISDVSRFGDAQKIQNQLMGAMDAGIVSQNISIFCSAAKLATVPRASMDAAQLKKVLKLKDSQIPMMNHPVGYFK

SMILES	Bacterial Biotransformation [1]	Bacterial Biotransformation [2]	Bacterial Biotransformation (Flavodoxin)	Bacterial Biotransformation (GDSL-like protein)	Bacterial Biotransformation (Diguanylate cyclase)	Bacterial Biotransformation [3]	Bacterial Biotransformation [4]	Bacterial Biotransformation [5]	Bacterial Biotransformation [6]	Bacterial Biotransformation [7]	Bacterial Biotransformation [8]	Bacterial Biotransformation (Xylanase)	Bacterial Biotransformation [9]
C#C[C@]1(O)CC[C@H]2[C@@H]3CCC4=Cc5oncc5C[C@]4(C)[C@H]3CC[C@@]21C [DANAZOL]	Compound metabolized	Compound NOT metabolized	Compound NOT metabolized	Compound NOT metabolized	Compound NOT metabolized	Compound metabolized	Compound metabolized	Compound metabolized	Compound metabolized	Compound metabolized	Compound metabolized	Compound NOT metabolized	Compound NOT metabolized
CC(=O)OCC(=O)NCCCOc1cccc(CN2CCCCC2)c1 [ROXATIDINE ACETATE]	Compound metabolized	Compound NOT metabolized	Compound NOT metabolized	Compound NOT metabolized	Compound NOT metabolized	Compound metabolized	Compound metabolized	Compound metabolized	Compound NOT metabolized	Compound metabolized	Compound metabolized	Compound metabolized	Compound NOT metabolized
CC(=O)Nc1ccc(OC(C)=O)cc1 [DIACETAMATE]	Compound metabolized	Compound NOT metabolized	Compound NOT metabolized	Compound metabolized	Compound NOT metabolized	Compound metabolized	Compound metabolized	Compound metabolized	Compound metabolized	Compound metabolized	Compound metabolized	Compound metabolized	Compound NOT metabolized
CC(=O)OCC(=O)[C@@]12N=C(C)O[C@@H]1C[C@H]1[C@@H]3CCC4=CC(=O)C=C[C@]4(C)[C@H]3[C@@H](O)C[C@@]12C [DEFLAZACORT]	Compound metabolized	Compound NOT metabolized	Compound NOT metabolized	Compound NOT metabolized	Compound NOT metabolized	Compound metabolized	Compound metabolized	Compound metabolized	Compound metabolized	Compound metabolized	Compound metabolized	Compound NOT metabolized	Compound NOT metabolized
